Measured values reported in ChEMBL document CHEMBL1122786, “Synthesis and antifolate properties of 10-alkyl-8,10-dideazaminopterins” (J Med Chem, 1984).

Key:
Mus musculus [1] = organism: Mus musculus; test: Compound was evaluated for antitumor activity against L1210 leukemia in mice and percent increase in life span was determined.; type: functional
Mus musculus [2] = organism: Mus musculus; test: Compound was evaluated for antitumor activity against L1210 leukemia in mice and median survival time was determined at ten mice per run.; type: functional
Mus musculus [3] = test: Compound was evaluated for antitumor activity against L1210 leukemia in mice and LD10 was determined 24 hour after subcutaneous administration in 10 E 6 cells implanted intraperitoneally.; type: ADME, organism-based; conditions: in vivo, sc
Mus musculus [4] = organism: Mus musculus; test: Compound was evaluated for antitumor activity against L1210 leukemia in mice and median survival time was determined at ten animals per run.; type: functional

SMILES | ILS (Mus musculus [1]) [%] | MST (Mus musculus [2]) [days] | LD10 (Mus musculus [3]) [mg/kg] | MST (Mus musculus [4]) [days]
CC(Cc1ccc2nc(N)nc(N)c2n1)c1ccc(C(=O)NC(CCC(=O)O)C(=O)O)cc1 (stereo not drawn) | 203 | 21.5 | 0.6 | –
CCC(Cc1ccc2nc(N)nc(N)c2n1)c1ccc(C(=O)NC(CCC(=O)O)C(=O)O)cc1 (stereo not drawn) | 235 | – | 1.5 | 23.8
Nc1nc(N)c2nc(CCc3ccc(C(=O)NC(CCC(=O)O)C(=O)O)cc3)ccc2n1 (stereo not drawn) | 189 | – | 0.75 | –
CCCC(Cc1ccc2nc(N)nc(N)c2n1)c1ccc(C(=O)NC(CCC(=O)O)C(=O)O)cc1 (stereo not drawn) | 176 | – | 6 | –
CN(Cc1cnc2nc(N)nc(N)c2n1)c1ccc(C(=O)N[C@@H](CCC(=O)O)C(=O)O)cc1 [METHOTREXATE] | 187 | – | 15 | 20.4
